A short description of the data set: gradient 5% acetonitrile 3 min, to 50% in 2 min, to 85% in 15 min, held 3 min, 100 µL/min. The following applies: column: Zorbax Extend-C18 2.1 x 50 mm; eluents: water / acetonitrile, 0.1% formic acid. The method in brief: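 Standards, all pure, were combined into mixtures of ~100 molecules and run at 100 μL/min on a Zorbax Extend-C18 column (2.1 × 50 mm, 1.8 μm) with water and acetonitrile, each containing 0.1% formic acid. A coupled quadrupole time-of-flight mass spectrometer operated in positive and negative ionization mode. Retention time values come from computationally picked adduct peaks, each inspected manually.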
Compound `CCOC(=O)c1c(C)oc2nc(C)nc(N3CCN(Cc4ccc5c(c4)OCO5)CC3)c12` displayed an RP-LC retention time of 708 s.

Take `CCCOc1cccc2c1CCN(Cc1ccc(F)cc1)C2=O`: the RP-LC retention time came to 1040 s.

`COc1ccc(-c2nnc(-c3ccc(C)c(S(=O)(=O)N(C)CC(=O)O)c3)o2)cc1OC` gave an RP-LC retention time of 748 s.

`COCC1CN(Cc2cn[nH]c2-c2ccc(OC)cc2)CCC1(F)F` (centres undefined): the RP-LC retention time was 624 s.

As to `O=S(=O)(c1cc(-c2nnc(C3CCC3)o2)co1)N1CCN(c2ccccc2)CC1`, the RP-LC retention time was determined as 1050 s.

Take `CN(C)[C@@H]1CN(C(=O)C2CCCCC2)CC[C@@H]1CO`: the RP-LC retention time turned out to be 585 s.

Turning to `CCOC(=O)c1ccc(-c2c(C(=O)OCC)oc3cc(O)c(CC)cc3c2=O)o1`, the RP-LC retention time turned out to be 955 s.

Compound `NC(=O)C1(N2CCCCC2)CCN(c2ncc(S(=O)(=O)c3ccccc3)c(N)n2)CC1` came in with an RP-LC retention time of 588 s.

`Cc1cc(=O)n(CC(=O)N2CCN(c3ccc(F)cc3)CC2)c(N2CCc3ccccc3C2)n1`: the RP-LC retention time amounted to 799 s.

Turning to `CC(C)NC(=O)N1CCCN(S(=O)(=O)C(C)C)CC1`, the RP-LC retention time is 649 s.

In turn, `O=C(NCCc1c[nH]c2ccccc12)c1cc2cccnc2n(Cc2ccccc2)c1=O` displayed an RP-LC retention time of 1070 s.

The compound `COc1ccc(OC)c(NC(=O)C(=O)c2ccc[nH]2)c1` gave an RP-LC retention time of 909 s.

As for `O=C(NCc1ccco1)C1CCCN(C(=O)c2cccn2-c2cccnc2)C1` (centres undefined), the RP-LC retention time turned out to be 600 s.

In turn, `COc1ccc2c(c1)c(CN1CCC(C(=O)NCCN3CCOCC3)CC1)cn2C` came in with an RP-LC retention time of 553 s.

Compound `O=C(c1cccn2c(=O)c3c4c(sc3nc12)CCCC4)N1CCN(c2ccccn2)CC1` gave an RP-LC retention time of 656 s.

For `Cc1ccc(-c2nc(C3CC(=O)N(c4ccc(F)cc4)C3)no2)cc1` (centres undefined), the RP-LC retention time was determined as 1030 s.

For the compound `COCc1noc([C@@H]2CN(C(=O)C3CC=CC3)C[C@H]2C(N)=O)n1`, the RP-LC retention time worked out at 609 s.

Compound `O=C1N(c2cccc(F)c2)C(c2ccccc2)C12CCNCC2` (centres undefined) had an RP-LC retention time of 669 s.

The compound `CCCN1C(=O)c2c(C(=O)NCCC(C)C)ncn2CC1(C)C(=O)NCc1ccc(F)cc1` (centres undefined) registered an RP-LC retention time of 824 s.

As for `Cc1cc2c(cc3n2CC(C)(C(=O)NC2CCCCC2)N(Cc2cccnc2)C3=O)o1` (centres undefined), the RP-LC retention time was 658 s.

Compound `COc1cc(NS(=O)(=O)c2cc3n(c2)CCN(C)C3=O)cc(OC)c1` showed an RP-LC retention time of 671 s.

`Cc1ccn2cc(C(=O)NCc3cccc(F)c3)nc2c1` yielded an RP-LC retention time of 645 s.

In turn, `O=C(c1c[nH]c2ccccc12)N1CCN(c2cc(-c3cccs3)[nH]n2)CC1` came in with an RP-LC retention time of 731 s.

With `CCCNc1nnc(-c2nc(C3CC3)no2)c2ccccc12`, the RP-LC retention time came to 660 s.

Turning to `Cc1ccc(CN2C[C@@H]3C(=O)N(Cc4ccc5c(c4)OCO5)C(=O)[C@@H]3C2)cc1C`, the RP-LC retention time was 691 s.

For the compound `CNC(=O)C1CCCN(c2nc3ncn(CC(=O)Nc4ccccc4C(=O)OC)c(=O)c3s2)C1` (centres undefined), the RP-LC retention time stood at 649 s.

In the case of `Cc1noc([C@@H]2CN(Cc3ccc(F)c(Cl)c3)C[C@H]2CO)n1`, the RP-LC retention time turned out to be 605 s.

In turn, `Cc1oc(-c2ccccc2)nc1Cn1nnc(C(=O)Nc2cc(F)ccc2F)c1C` returned an RP-LC retention time of 1220 s.

`CCN1CCCC1CNS(=O)(=O)c1ccc2c(c1)CCN2C(=O)CCC(=O)N1CCCCC1` (centres undefined) had an RP-LC retention time of 620 s.

Consider `Cc1nnc(CNC(=O)c2cc(-c3ccccc3)nn2C)o1`, for which the RP-LC retention time stood at 646 s.

`CCOc1ccc(NS(=O)(=O)c2cc(C(=O)N3CCN(c4ccccc4)CC3)n[nH]2)cc1` gave an RP-LC retention time of 883 s.

In the case of `CCOC(=O)C1CCN(c2ncc(S(=O)(=O)c3ccc(Cl)cc3)c(N)n2)CC1`, the RP-LC retention time was determined as 1030 s.

`Cc1cc(-c2c(C)sc(C)c2S(=O)(=O)NC2CCC(C)CC2)n[nH]1` (centres undefined) had an RP-LC retention time of 1140 s.

In turn, `COc1cccc(S(=O)(=O)N2CCC(c3noc(-c4cccc(C)c4)n3)CC2)c1` gave an RP-LC retention time of 1180 s.

The compound `COc1cc(OC)c(NC(=O)NC2CCN(c3ccc(C)cc3)C2=O)cc1Cl` (centres undefined) came in with an RP-LC retention time of 873 s.

As for `Cc1ccc(N2CCC(NC(=O)c3ccccc3)C2=O)cc1` (centres undefined), the RP-LC retention time came to 794 s.

`Cc1nnc(NC(=O)C2CCN(C(=O)c3cccc(F)c3)CC2)s1` came in with an RP-LC retention time of 661 s.

The compound `CCC(=O)Nc1c(C(=O)NC)oc2ccccc12` gave an RP-LC retention time of 712 s.

As to `O=C(NCCN1CCOCC1)c1ccc(-c2c(-c3ccc(F)cc3)ncn2C2CCCC2)o1`, the RP-LC retention time turned out to be 592 s.

`O=C1CCC2(CNC(=O)NCCc3ccccc3)CCCC=C2N1` (centres undefined) displayed an RP-LC retention time of 623 s.

In the case of `O=C(NCc1csc(-c2ccccc2)n1)C1CCN(S(=O)(=O)c2ccc(Cl)cc2)CC1`, the RP-LC retention time came to 976 s.

On to `CCN1CCCC1CNC(=O)CC1CCN(S(=O)(=O)c2ccc3c(c2)CCN3C(C)=O)CC1` (centres undefined), for which the RP-LC retention time came out at 597 s.

`Cc1nc(-c2ccc(-c3noc(Cc4c[nH]c5ccccc45)n3)cc2)cs1` came in with an RP-LC retention time of 1090 s.

Turning to `CCCN(CC1CCOC1)C(=O)c1ccccc1Br` (centres undefined), the RP-LC retention time was found to be 801 s.

Turning to `Cc1cccc(NC(=O)Nc2nccn(-c3cccc(Cl)c3C)c2=O)c1`, the RP-LC retention time is 1110 s.

Compound `CC12C=CC(O1)C1C(=O)N(c3ccc(N4CCOCC4)cc3)C(=O)C12` (centres undefined) came in with an RP-LC retention time of 662 s.

Take `O=C(c1[nH]nc2c1CCc1ccccc1-2)N1CCC(c2noc(-c3ccncc3)n2)C1` (centres undefined): the RP-LC retention time came to 755 s.

`CCc1nc(-c2csc(S(=O)(=O)N3CCCC(C(=O)Nc4ccc5c(c4)OCO5)C3)c2)no1` (centres undefined) came in with an RP-LC retention time of 984 s.

In turn, `O=C1CCN(C(=O)C2CCN(C(=O)C3CCC3)CC2)CCCCCCN1` gave an RP-LC retention time of 626 s.

For the compound `COc1cc(NC(=O)C2CCCN(c3nccnc3Sc3ccccc3)C2)cc(OC)c1OC` (centres undefined), the RP-LC retention time is 984 s.

In turn, `CCOC(=O)c1c2c3c(cccc3n(C)c1=O)C(=O)c1ccccc1-2` returned an RP-LC retention time of 907 s.

As for `COc1ccccc1-c1noc(C2CCCN2C(=O)Nc2cccc(C)c2C)n1` (centres undefined), the RP-LC retention time was determined as 858 s.

The compound `CCOC(=O)c1nc(NCC2CCN(Cc3ccccc3Cl)CC2)c2ccccc2n1` had an RP-LC retention time of 1060 s.

The compound `O=C(Nc1cc(-c2ccccn2)no1)c1ccc(Cl)cc1` showed an RP-LC retention time of 864 s.

`CC1(C(=O)NCc2ccc(F)cc2)CCCN(C(=O)NC2COc3ccccc3C2)C1` (centres undefined): the RP-LC retention time turned out to be 875 s.

As to `O=C(Cn1c2ccccc2c2ncn(Cc3nc(-c4ccccc4)no3)c(=O)c21)NC1CCCC1`, the RP-LC retention time was 912 s.

Take `NC(=O)C1CCN(C(=O)Cc2cc(-c3cccs3)on2)CC1`: the RP-LC retention time is 594 s.

The compound `CCOc1ccc(NS(=O)(=O)c2ccccc2-c2nc(-c3ccc(F)cc3)no2)cc1` registered an RP-LC retention time of 1200 s.

The compound `Cc1cccc(-c2nc3ccccn3c2NC(=O)NC2CCCC2)c1` yielded an RP-LC retention time of 639 s.

These data come from the METLIN SMRT retention time set (Domingo-Almenara et al. 2019).
